Laboratory results as given in patent US20250197343A1, “CATIONIC LIPID” (TAKEDA PHARMACEUTICAL COMPANY LIMITED, priority 2021, published 2025).
Read-outs that look alike come from different tables or passages of the source.

Columns and labels:
[1] = Particle size of Luc DNA-encapsulated lipid nanoparticles; assay type: physicochemical; details: cationic lipid:DPPC:cholesterol:GM-020=60:10.6:28:1.4 molar ratio
In short: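 LNPs of cationic lipid:DPPC:cholesterol:GM-020 (60:10.6:28:1.4 molar) encapsulating luciferase DNA, made by microfluidic mixing with DNA in 10 mM MES pH 5.5, dialysed into PBS, stored in 20% sucrose/PBS at −80 °C. Size by dynamic light scattering, reported as cumulant Z-average.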

[2] = Rate of encapsulation of Luc DNA in lipid nanoparticles; assay type: physicochemical; parameters: unit: %; details: Luc DNA-encapsulated lipid nanoparticles; cationic lipid:DPPC:cholesterol:GM-020=60:10.6:28:1.4 molar ratio
In short: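 Luc DNA-LNPs (cationic lipid:DPPC:cholesterol:GM-020 = 60:10.6:28:1.4 molar) formed by microfluidic mixing with DNA in 10 mM MES pH 5.5, then dialyzed into PBS. RiboGreen fluorescence measured with and without Triton X-100; encapsulation rate is the encapsulated fraction of total nucleic acid.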

ICrl:CD1 (ICR) mice = assay: Mouse bioluminescence imaging evaluation (Test Example 1); assay type: in vivo; details: Luc DNA-encapsulated lipid nanoparticles 10 mL/kg i.v. to ICR mice; IVIS total flux 15 minutes after luciferin i.p.
In short: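 ICR mice received Luc DNA-encapsulated lipid nanoparticles i.v. (10 mL/kg), then luciferin 15 mg/mL i.p. (10 mL/kg). Ventral IVIS imaging under isoflurane 15 min after luciferin; total flux scored A (≥3.0E+07), B (1.0E+07 to <3.0E+07), C (<1.0E+07).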

Huh-7 cells = assay: Evaluation of viability using Huh-7 cells (Test Example 2); assay type: cell-based
Protocol: Huh-7 cells were seeded in a 96-well plate, and PBS, the Luc DNA-encapsulated lipid nanoparticles obtained in the aforesaid Production Example by using the cationic lipids of the Examples shown in Table 3, or Luc DNA-encapsulated lipid nanoparticles for control which were obtained in the same manner as in the aforesaid Production Example except that a known lipid, MC3 (DLin-MC3-DMA) or ALC-0315, was used instead of the cationic lipids of the Examples were added thereto (final concentration: 0.1 μg/mL and 0.3 μg/mL), followed by evaluation of viability (CellTiter-Fluor Cell Viability Assay, Promega Corporation). Taking the viability of dead cell group as 0% and the viability of the PBS group as 100%, the viability of each of the lipid particle groups was calculated. Higher viability indicates higher safety of the lipid particles. When the cationic lipids of the Examples were used, an improvement in safety compared to the control groups of MC3 and ALC-0315 was observed.

[3] = Huh-7 cells, Luc DNA-encapsulated lipid nanoparticles, final concentration 0.1 μg/mL, PBS group = 100%, dead cell group = 0%
[4] = Huh-7 cells, Luc DNA-encapsulated lipid nanoparticles, final concentration 0.3 μg/mL, PBS group = 100%, dead cell group = 0%

Row | SMILES | Particle size (nm) [1] | Rate of encapsulation [2] | Luminescence (ICrl:CD1 (ICR) mice) | Viability 0.1 μg/ml (%) (Huh-7 cells; [3]) | Viability 0.3 μg/ml (%) (Huh-7 cells; [4]) | Viability 0.1 μg/ml (%) (Huh-7 cells) | Viability 0.3 μg/ml (%) (Huh-7 cells)
1 | CCCCCCCOC(=O)CCCCC(=O)OCC(COC(=O)CCCCC(=O)OCCCCCCC)(COC(=O)CCCN(C)C)COC(=O)CC(CCCCC)CCCCC [Example 13, 1,1′-[2-({[4-(Dimethylamino)butanoyl]oxy}methyl)-2-{[(3-pentyloctanoyl)oxy]methyl}propane-1,3-diyl] 6,6′-diheptyl dihexanedioate] | 136.5 nm | 96.3 | A (A represents luminescence of 3.0E+07 or more) | 112% | 105% |  | 
2 | CCCCCC(CCCCC)COC(=O)CCC(=O)OCC(COC(=O)CCCN(C)C)(COC(=O)CCC(=O)OCC(CCCCC)CCCCC)COC(=O)CCC(=O)OCC(CCCCC)CCCCC [Example 37, 1,1′-{2-({[4-(Dimethylamino)butanoyl]oxy}methyl)-2-[({4-oxo-4-[(2-pentylheptyl)oxy]butanoyl}oxy)methyl]propane-1,3-diyl} 4,4′-bis(2-pentylheptyl) dibutanedioate] | 124.1 nm | 97.0 | A (A represents luminescence of 3.0E+07 or more) | 111% | 98% |  | 
3 | CCCCCCCCCOC(=O)CCCCC(=O)OCC(COC(=O)CCCCC(=O)OCCCCCCCCC)(COC(=O)CCCCC(=O)OCCCCCCCCC)COC(=O)CCCN(C)C [Example 41, 1,1′-[2-({[4-(Dimethylamino)butanoyl]oxy}methyl)-2-({[6-(nonyloxy)-6-oxohexanoyl]oxy}methyl)propane-1,3-diyl] 6,6′-dinonyl dihexanedioate] | 138.0 nm | 80.3 | B (B represents luminescence of 1.0E+0.7 or more and less than 3.0E+07) | 111% | 101% |  | 
4 | CCCCC/C=C\C/C=C\CCCCCCCCC(CCCCCCCC/C=C\C/C=C\CCCCC)OC(=O)CCCN(C)C [MC3, reference compound] |  |  |  | 97% | 49% |  | 
5 | CCCCCCCCCCOC(=O)CCCCC(=O)OCC(COC(=O)CCCCC(=O)OCCCCCCCCCC)(COC(=O)CCCN(C)C)COC(=O)CC(CCCCC)CCCCC [Example 45, 1,1′-Didecyl 6,6′-[2-({[4-(dimethylamino)butanoyl]oxy}methyl)-2-{[(3-pentyloctanoyl)oxy]methyl}propane-1,3-diyl] dihexanedioate] | 119.0 nm | 95.6 | A (A represents luminescence of 3.0E+07 or more) | 108% | 103% |  | 
6 | CCCCCC(CCCCC)OC(=O)CCC(=O)OCC(COC(=O)CCCN(C)C)(COC(=O)CCC(=O)OC(CCCCC)CCCCC)COC(=O)CCC(=O)OC(CCCCC)CCCCC [Example 39, 1,1′-{2-({[4-(Dimethylamino)butanoyl]oxy}methyl)-2-[({4-oxo-4-[(undecan-6-yl)oxy]butanoyl}oxy)methyl]propane-1,3-diyl} 4,4′-diundecan-6-yl dibutanedioate] | 135.2 nm | 98.5 | B (B represents luminescence of 1.0E+0.7 or more and less than 3.0E+07) |  |  | 113% | 94%
7 | CCCCCC(CCCCC)CC(=O)OCC(COC(=O)CCCCC(=O)OCC(CCC)CCC)(COC(=O)CCCCC(=O)OCC(CCC)CCC)COC(=O)CCCN(C)C [Example 115, 1,1′-[2-({[4-(Dimethylamino)butanoyl]oxy}methyl)-2-{[(3-pentyloctanoyl)oxy]methyl}propane-1,3-diyl] 6,6′-bis(2-propylpentyl) dihexanedioate] | 109.6 nm | 95.7 | A (A represents luminescence of 3.0E+07 or more) | 110% | 100% |  | 
8 | CCCCCCCOC(=O)CCCCC(=O)OCC(COC(=O)CCCCN(C)C)(COC(=O)CC(CCCCC)CCCCC)COC(=O)CC(CCCCC)CCCCC [Example 18, 2-({[5-(Dimethylamino)pentanoyl]oxy}methyl)-3-[(3-pentyloctanoyl)oxy]-2-{[(3-pentyloctanoyl)oxy]methyl}propyl heptyl hexanedioate] | 138.9 nm | 96.6 | A (A represents luminescence of 3.0E+07 or more) | 110% | 106% |  | 
9 | CCCCCCCCCCOC(=O)CCCCC(=O)OCC(COC(=O)CCCN(C)C)(COC(=O)CC(CCCCC)CCCCC)COC(=O)CC(CCCCC)CCCCC [Example 51, Decyl 2-({[4-(dimethylamino)butanoyl]oxy}methyl)-3-[(3-pentyloctanoyl)oxy]-2-{[(3-pentyloctanoyl)oxy]methyl}propyl hexanedioate] | 83.9 nm | 98.2 | B (B represents luminescence of 1.0E+0.7 or more and less than 3.0E+07) | 104% | 78% |  | 
10 | CCCCCCCOC(=O)CCCCC(=O)OCC(COC(=O)CCCCC(=O)OCCCCCCC)(COC(=O)CCCN(C)CCO)COC(=O)CC(CCCCC)CCCCC [Example 93, 1,1′-Diheptyl 6,6′-(2-[({4-[(2-hydroxyethyl)(methyl)amino]butanoyl}oxy)methyl]-2-{[(3-pentyloctanoyl)oxy]methyl}propane-1,3-diyl) dihexanedioate] | 145.6 nm | 94.8 | B (B represents luminescence of 1.0E+0.7 or more and less than 3.0E+07) | 105% | 101% |  | 
11 | CCCCCCCCC(C(=O)OC)C(=O)OCC(COC(=O)CCCN(C)C)(COC(=O)CC(CCCCC)CCCCC)COC(=O)C(CCCCCCCC)C(=O)OC (centres unmarked) [Example 132, 1,1′-[2-({[4-(Dimethylamino)butanoyl]oxy}methyl)-2-{[(3-pentyloctanoyl)oxy]methyl}propane-1,3-diyl] 3,3′-dimethyl bis(octylpropanedioate)] | 129.2 nm | 96.5 | A (A represents luminescence of 3.0E+07 or more) | 95% | 94% |  | 
12 | CCCCCCCCC(CCCCCC)C(=O)OCCCCCCN(CCCCO)CCCCCCOC(=O)C(CCCCCC)CCCCCCCC (centres unmarked) [ALC-0315, reference compound] |  |  |  | 89% | 68% |  | 
13 | CCCCCCCOC(=O)CCCCC(=O)OCC(COC(=O)CCCCC(=O)OCCCCCCC)(COC(=O)CCCN(C)C)COC(=O)CC(CCC)CCCCCCC (centres unmarked) [Example 28, 1,1′-[2-({[4-(Dimethylamino)butanoyl]oxy}methyl)-2-{[(3-propyldecanoyl)oxy]methyl}propane-1,3-diyl] 6,6′-diheptyl dihexanedioate] | 137.3 nm | 94.9 | A (A represents luminescence of 3.0E+07 or more) | 113% | 110% |  | 
14 | CCCCCCCCCOC(=O)CCC(=O)OCC(COC(=O)CCCN(C)C)(COC(=O)CCC(=O)OCCCCCCCCC)COC(=O)CC(CCCCC)CCCCC [Example 97, 1,1′-[2-({[4-(Dimethylamino)butanoyl]oxy}methyl)-2-{[(3-pentyloctanoyl)oxy]methyl}propane-1,3-diyl] 4,4′-dinonyl dibutanedioate] | 118.7 nm | 97.8 | A (A represents luminescence of 3.0E+07 or more) |  |  |  | 
